ChEMBL document CHEMBL5058564, “EUbOPEN Chemogenomics Library 2 (Incucyte)” (2022)
“And” between values parts separate entries of the source, which are not always exact repeats. Equal entries are not always repeated.

Columns and labels:
Type in all cases: toxicity, cell-based
Fibroblast = experiment: Incucyte cell viability with human fibroblast; details: 10 µM, compound concentration 10 uM
HEK-293T = experiment: Incucyte cell viability with HEK293T; details: human, 10 µM, compound concentration 10 uM
U2OS = experiment: Incucyte cell viability with U2OS; details: human, 10 µM, compound concentration 10 uM
[1] = 0 h, replicate number 1, timepoint 0 hours
[2] = 0 h, replicate number 2, timepoint 0 hours
[3] = 6 h, replicate number 1, timepoint 6 hours
[4] = 6 h, replicate number 2, timepoint 6 hours
[5] = 12 h, replicate number 1, timepoint 12 hours
[6] = 12 h, replicate number 2, timepoint 12 hours
[7] = 18 h, replicate number 1, timepoint 18 hours
[8] = 18 h, replicate number 2, timepoint 18 hours
[9] = 24 h, replicate number 1, timepoint 24 hours
[10] = 24 h, replicate number 2, timepoint 24 hours
Also: unitless GR value; below 1 slowed growth and below 0 cell loss.

SMILES	Growth Rate (Fibroblast; [1])	Growth Rate (Fibroblast; [2])	Growth Rate (Fibroblast; [3])	Growth Rate (Fibroblast; [5])	Growth Rate (Fibroblast; [7])	Growth Rate (Fibroblast; [9])	Growth Rate (HEK-293T; [1])	Growth Rate (HEK-293T; [2])	Growth Rate (HEK-293T; [5])	Growth Rate (HEK-293T; [6])	Growth Rate (HEK-293T; [7])	Growth Rate (HEK-293T; [8])	Growth Rate (HEK-293T; [9])	Growth Rate (HEK-293T; [10])	Growth Rate (U2OS; [3])	Growth Rate (U2OS; [8])	Growth Rate (U2OS; [9])	Growth Rate (U2OS; [10])	Growth Rate (U2OS; [7])	Growth Rate (U2OS; [2])	further results
O=C(O)c1n[nH]c2c1C[C@H]1C[C@@H]21	0.67	0.18 and 0.32	0.39 and 0.14	0.55 and 0.57	0.72 and 0.87	0.63 and 0.53	0.7	0.85	0.71	0.64	0.67	0.58	0.7	0.58	-0.58	0.91 and 0.92	0.99	1	–	–	Growth Rate (Fibroblast; [4]): 0.95 and 0.74; Growth Rate (Fibroblast; [6]): 0.86; Growth Rate (Fibroblast; [8]): 0.89; Growth Rate (Fibroblast; [10]): 0.79; Growth Rate (HEK-293T; [3]): 0.55; Growth Rate (HEK-293T; [4]): 0.86 and 0.89; Growth Rate (U2OS; [4]): 0.74; Growth Rate (U2OS; [6]): 0.86
CC(C)(C)c1ccc(-c2coc3ccc(-c4cn[nH]c4)nc23)cc1	–	–	-0.89	-0.7	-0.62	-0.48	–	–	0.44	0.39	0.66	–	0.67	0.62	–	0.53	0.69	0.43	0.76	–	Growth Rate (Fibroblast; [4]): -0.35; Growth Rate (Fibroblast; [6]): 0; Growth Rate (Fibroblast; [8]): 0.05; Growth Rate (Fibroblast; [10]): 0.09; Growth Rate (HEK-293T; [3]): 0.36; Growth Rate (HEK-293T; [4]): 0.2; Growth Rate (U2OS; [1]): 0.4; Growth Rate (U2OS; [6]): 0.79
CCCN1CCO[C@H]2c3cc(O)ccc3OC[C@@H]21.Cl	0.77	0.29	–	0.98	0.72	0.8	0.72	-0.13	–	–	–	–	–	0.96	0.6	–	–	–	0.92	–	Growth Rate (U2OS; [1]): 0.55; Growth Rate (U2OS; [5]): 0.93
Cc1ccccc1N1CCN(S(=O)(=O)C[C@]23CC[C@H](C[C@@H]2NC(=O)[C@@H](N)CCS(C)(=O)=O)C3(C)C)CC1.Cl	0.33	0.56	–	–	–	–	0.81	0.34	0.81	0.75	0.84	0.92	0.97	0.93	0.91	–	0.89	1	0.77	-0.25	Growth Rate (Fibroblast; [6]): 0.8; Growth Rate (Fibroblast; [8]): 0.91; Growth Rate (Fibroblast; [10]): 0.76; Growth Rate (HEK-293T; [3]): 0.8; Growth Rate (U2OS; [1]): -0.8; Growth Rate (U2OS; [5]): 0.85
CN1CCN(c2nc3cc(C(F)(F)F)ccc3n3cccc23)CC1.O=C(O)/C=C\C(=O)O.O=C(O)/C=C\C(=O)O	0.87	–	0.24	0.72	0.98	–	–	–	–	0.87	–	0.7	0.8	–	–	–	–	–	–	-1	Growth Rate (HEK-293T; [3]): 0.89; Growth Rate (HEK-293T; [4]): 0.57
CCc1ccccc1C(=O)Nc1n[nH]c2c(C)c(F)c(C3C(C#N)=C(C)N(C)C(C)=C3C#N)cc12 [BAY-3827]	0.51	-0.4	0.12	0.64	0.79	0.56	–	-1	0.35	–	0.5	–	0.55	–	–	–	–	0.87	–	0.74	Growth Rate (HEK-293T; [3]): 0.43
CN(C(=O)/C=C/c1ccoc1)[C@@H]1CC[C@@]2(O)[C@H]3Cc4ccc(O)c5c4[C@@]2(CCN3CC2CC2)[C@H]1O5 [NALFURAFINE]	–	0.55	–	–	–	–	0.87	0.49	–	0.91	–	–	–	0.91	0.82	0.88	0.77	–	0.68	-0.09	Growth Rate (U2OS; [1]): 0.56; Growth Rate (U2OS; [6]): 1
CC(=O)NCCc1c(Cc2ccccc2)[nH]c2ccccc12 [LUZINDOLE]	–	0.86	0.87	0.94	–	–	–	–	0.96	–	–	–	–	–	0.72	0.76	–	0.88	–	–	Growth Rate (HEK-293T; [4]): 0.58; Growth Rate (U2OS; [1]): 0.42; Growth Rate (U2OS; [4]): 0.96; Growth Rate (U2OS; [6]): 0.87
COC[C@@H](CC(C)C)NC1=N/C(=C\c2ccc3ncsc3c2)C(=O)N1C	0.25	-0.23	–	–	–	–	-0.43	-0.15	0.24	0.41	0.39	0.38	0.48	0.42	–	0.38	0.25	0.35	0.22	0.78	Growth Rate (HEK-293T; [3]): 0.84; Growth Rate (U2OS; [5]): 0.43; Growth Rate (U2OS; [6]): 0.53
Cc1[nH]cnc1CN1CCc2c(c3ccccc3n2C)C1=O [ALOSETRON]	0.35	–	–	–	–	–	0.73	–	–	–	–	0.96	–	–	0.03	0.87	–	0.9	0.89	–	Growth Rate (Fibroblast; [4]): 0.22; Growth Rate (Fibroblast; [8]): 1; Growth Rate (HEK-293T; [4]): 0.39
COc1cc(OC2CCN(C(C)=O)CC2)ccc1C(=O)N1CCC(N2C(=O)OCc3ccccc32)CC1	–	–	-0.07	0.28	0.37	0.24	0.92	–	–	–	–	–	–	–	0.85	0.78	0.91	0.88	0.91	–	Growth Rate (Fibroblast; [4]): -0.41; Growth Rate (Fibroblast; [6]): 0.65; Growth Rate (U2OS; [1]): 0.75; Growth Rate (U2OS; [4]): 0.79; Growth Rate (U2OS; [6]): 0.77
CC(C)c1cc(-c2ccc(F)c3ccccc23)nc(N)n1	-0.03	–	0.51	0.58	0.4	0.62	0.46	0.76	–	–	–	–	–	–	0.62	0.79	0.73	0.89	0.86	-0.96	Growth Rate (HEK-293T; [4]): 0.72; Growth Rate (U2OS; [4]): 0.83; Growth Rate (U2OS; [5]): 0.81
C[C@]12N[C@H](Cc3ccccc31)c1ccccc12 [DIZOCILPINE]	–	0.6	0.45	0.08	0.43	0.25	–	–	–	0.84	–	0.88	–	1	0.6	0.93	–	0.98	0.97	–	Growth Rate (U2OS; [4]): 0.81; Growth Rate (U2OS; [6]): 0.75
CCNC(=O)c1cc2c(-c3cc(C(C)(C)O)ccc3Oc3c(C)cc(F)cc3C)cn(C)c(=O)c2[nH]1 [ABBV-744]	0.23	–	0.41	0.68	0.87	0.75	0.5	0.16	–	–	0.82	–	0.69	0.71	–	–	-0.17	–	–	–	Growth Rate (Fibroblast; [4]): 0.71; Growth Rate (Fibroblast; [10]): 0.87
C(#Cc1cccc(CN2CCOCC2)c1)CCN1CCCCC1	–	–	0.03	0.14	0.39	0.28	0.61	0.63	0.91	–	0.78	–	0.73	–	–	–	–	–	–	-1	Growth Rate (Fibroblast; [4]): 0.09; Growth Rate (Fibroblast; [6]): 0.09; Growth Rate (Fibroblast; [8]): 0.23; Growth Rate (Fibroblast; [10]): 0.26; Growth Rate (U2OS; [1]): 0.35
COc1cc(NC(=O)CCN2CCC(OC(=O)Nc3ccccc3-c3ccccc3)CC2)c(Cl)cc1CNC[C@H](O)c1ccc(O)c2[nH]c(=O)ccc12 [BATEFENTEROL]	-0.65	0.38	–	–	–	–	-0.23	0.01	0.88	0.79	0.8	1	–	–	–	0.95	1	0.9	0.93	-1	–
